Results on one molecule are retold here after US10807958B2, “1,4-bis(3-aminopropyl)piperazine derivative and its use” (INSERM (Institut National de la Sante et de la Recherche …, priority 2015, dated 2020).

The test system of experiment [1] is endogenous Tau (MAPT) of wild-type C57/BL6 animals. Kind of experiment: 2D gel electrophoresis of endogenous brain Tau in treated wild-type animals. The conditions noted are these: wild-type mice, 1 month; for number of Tau isovariants stained with antibody S199: 5 isovariants in non-treated condition. The class given is in vivo, mouse. The source says:
(§1) Wild-type C57BL/6J animals of 3 months were purchased at Charles Rivers Laboratories (France) and were allow to acclimate in the animal facility for at least one week before any treatment. Thy-Tau22 transgenic colonies (C57BL/6J genetic background) were obtained by crossing heterozygous Thy-Tau22 males with C57BL/6 WT females. […] In this model, a progressive development of NFT is observed in the hippocampus and amygdala, which parallels behavioral impairments (Schindowski et al., 2006). Furthermorever, in the hippocampus, hyper- and abnormally phosphorylated Tau species accumulate within the somato-dendritic area (Schindowski et al., 2006).
(§2) For animal treatment, animals were randomly distributed and the compound of Formula I was given in the drinking water at final concentration of 0.5 or 1 mg/kg. Drinking bottles were changed once per week, volume consumption was measured along the treatment period. Food consumption and body weight were assessed. In wild-type animals the pilot study of drug treatment was performed for one month to establish the innocuousness of the treatment with the compound of Formula I. This was based on the physiological, social and behavioural assessments. Thy-Tau22 males were treated for 4 months starting at 3 month old. All protocols were approved by the local ethics committee (n^∘342012, CEEA).
After behavioral assessment, blood was collected in 1.5 mL polypropylene tubes (Eppendorf, France), mice were sacrificed by cervical dislocation to avoid any modifications instrumental to anesthesia (Lefreche et al. 2012). Hippocampi and cortices were dissected and snap frozen in 1.5 mL tubes (Eppendorf). Tissue was homogenized in Tris-HCl buffer (10 mM pH 7.4) containing 320 mM sucrose, protease inhibitors (Complete mini EDTA-free, Roche) sonicated and spun at 12,000×g for 10 min at 4° C. The supernatant was recovered, protein concentration was achieved using the BCA Protein quantification assay kit (Pierce) according to the manufacturer instruction. The supernatant was further processed for biochemical analyses or kept at −80° C. For 1D or 2D gels, the same lysis buffer was used. Thus, equal amount protein in Tris buffer were added with a solution containing 7M urea, 2M thiourée with 2% SDS and sonicated at 60 Hz 30 pulses.
Two-dimensional gel electrophoresis was performed according to the recently published procedure (Fernandez-Gomez et al., 2014). Briefly, cells were rinsed once with PBS and lysed in UTS buffer (7M urea, 2M thiourea, 2% SDS) and sonicated at 60 Hz 30 pulses. Lysate was precipitated with methanol/chloroform. 50 μg of proteins were precipitate using the chloroform/methanol procedure and the pellet was dissolved in 2D buffer [urea 7M, thiourea 2M, 4% CHAPS, and 0.6% Pharmalytes 3-10 (G&E Healthcare)]. […] The strips were layered onto a 4-12% Bis-Tris Poly-acrylamide Gel XT™ Precast Criterion (BioRad) and run with a constant tension of 100V as described for 1D SDS-PAGE. The Western blot was performed as above described for 1D SDS-PAGE and Western-blotting.
To further determine the effect of the compound of Formula I on Tau metabolism, wild-type C57/BL6 animals were treated with 0.5 and 1 mg/Kg of the compound of Formula I for 1 month and endogenous MAPT expression was assessed by 2D gel electrophoresis. Tau protein isovariants consist of three series ranging from pI 10 to 6. The major and most basic isovariants correspond to the mouse Tau isoform comprising the sole exon 10 encoding sequence. The two other series of isoforms of molecular weight of 64 and 69 kDa are isovariants of Tau isoforms which, in addition to the exon 10, contain exon 2 or exon 2+3 encoding sequences, respectively.

The subject of experiment [2] is Thy-Tau22 mice. In words: Morris water maze spatial memory, Thy-Tau22 mice. In kind it is in vivo, mouse. The conditions noted are these: 4 months.
Source text: as §1, §2
Before any behavioral test, exploratory and locomotion of treated and untreated animal were evaluated in a Open field (OF) 25 cm×25 cm arena. Four acquisitions in joined arena were performed simultaneously. Each mouse was placed in the arena and allowed to explore for at least 5 min. Parameters including distance, speed, velocity were acquired by video recording using the EthoVision video tracking equipment and software (Noldus, Information Technology, Paris, France) in a dedicated room. The anxiety, which could interfere with memory test, was evaluated by the elevated plus maze (EPM). […] Locomotion, distance, speed and velocity were measured as well as the number of arm entries, time spent in the open versus closed arms, percentage of open arm entries and time per minute spent in the open arms on a total of 5 min test.
Spatial learning and memory abilities were assessed in a standard hidden-platform acquisition and retention version of the Morris water maze task (Van der Jeugd et al., 2013). […] The time required to find the hidden rescue platform (escape latency) was used as a spatial learning index and was recorded using the Ethovision XT video tracking system (Noldus France). Swimming speed and total distance were also measured. 72 h after the acquisition phase, the hidden platform was removed and spatial memory was evaluated in a 60 s probe trial. […]

For the molecule `CC(C)CN(CCCN1CCN(CCCNc2c3c(nc4ccccc24)CCCC3)CC1)CC(C)C` [compound of Formula I, N-[3-(4-{3-[Bis(2-methylpropyl)amino]propyl}piperazin-1-yl)propyl]-1,2,3,4-tetrahydroacridin-9-amine], the “number of Tau isovariants stained with antibody S199” value in experiment [1] (0.5 mg/Kg) came out at 3 isovariants; in experiment [1] (1 mg/Kg) it was 2 isovariants. Also, the “low molecular weight Tau catabolic products (Tau-Cter antibody)” value in experiment [1] (0.5 mg/Kg, brain 2D gel, FIG. 3) is “increased in number and intensity”. Also, in experiment [1] (0.5 and 1 mg/Kg in drinking water, brain 2D gel, FIG. 3), the “distribution of Tau isovariants (Tau-Cter antibody)” value is on record as “did not significantly change”. Further, the “surface of the spots stained with antibody S199” value in experiment [1] (0.5 and 1 mg/Kg, 2D gel) was “reduced”. For the same molecule, the “overall 2D profile of the full-length Tau isoforms” value in experiment [1] (after treatment 0.5 and 1 mg/Kg) is “preserved”. Moreover, the “probe test, spatial memory in Thy-Tau22 mice” value in experiment [2] (0.5 mg/kg, probe test 72 hours after last learning day) is “preserved”. Also, the “development of spatial memory impairments (ANOVA statistical analysis)” value in experiment [2] (Thy-Tau22 mice, 0.5 mg/kg) is recorded as “protected or preserved”. In addition, the “time spent in the target quadrant versus the others” value in experiment [2] (Thy-Tau22 treated, 0.5 mg/kg, untreated spent equal % of time, FIG. 4B) is on record as “more time”. In addition, the “learning phase (distance to reach the platform) between the animal groups” value in experiment [2] (WT and Thy-Tau22, treated or not with 0.5 mg/kg, FIG. 4A) is “not significantly different”.
